Assay results reported in article PMC12705620 (Frontiers in Pharmacology, 2025).
Several values for one entry are separate records, joined by “and”; a condition that tells them apart may be missing. Identical values can stand only once. Like-named read-outs stand apart in the source and are kept apart here.

Experiments:
[1] = system: S. aureus LUH14616 (MRSA); assay: Ex vivo human skin wound infection model; design: species or system Staphylococcus aureus; settings: 0.5% (v/v) in 70% ethanol, positive control, 4 h, p < 0.001
Text: Human skin from 3 donors was obtained via the Residual Tissue Biobank of the Red Cross Hospital (Beverwijk, Netherlands). The use of these coded, post-operative residual tissue samples was approved by patients through the informed opt-out-plus protocol of the Red Cross Hospital Skin ([Code-of-Conduct-for-Health-Research, 2022]) and processed for an ex vivo wound infection model as described ([Dijksteel et al., 2020]). The Wounded skin grafts were sectioned into approximately 1 cm^2 samples using a sterile scalpel and were decontaminated by immersion in 70% ethanol for 30 min, followed by three PBS washes. Samples were placed dermis-down and wound-side-up on stainless steel grids with central indentations, positioned in 12-well plates, and cultured at the air–liquid interface in DMEM at 37 °C and 5% CO2. To confine reagents to the wound area, a resin barrier (OpalDam; Ultradent) was applied to the wounded area and polymerized using a hand-held UV light (Valo X) for 10 s. The wounds were then topically infected with 10 µL of S. aureus LUH14616 suspension of 1 × 10^7 CFU/mL (final dose: 1 × 10^5 CFU/graft) in PBS for 1 h, followed by topical application of 10 µL of peptide solution for 4 h. Chlorhexidine (0.5% (v/v) in 70% ethanol; Entick B.V.) and PBS were used as positive and negative controls, respectively. After treatment, tissue samples were transferred to polypropylene vials containing 1 mL PBS supplemented with 0.025% (v/v) SPS and a 7 mm stainless steel bead. Homogenization was performed using a MagnaLyser System (Roche) with three 30-s cycles at 7,000 rpm, with 30 s of cooling on ice between cycles. Homogenates were 10-fold serially diluted in PBS, and 100 µL aliquots were plated on BA plates. CFUs were enumerated after overnight incubation at 37 °C.

[2] = system: Staphylococcus aureus JAR060131; type: cell-based
Description: (§1) Bactericidal activity was assessed as previously described ([Breij et al., 2018]). Briefly, mid-logarithmic phase bacterial cultures were diluted in RPMI to 1 × 10^7 CFU/mL. For fungicidal assays, fungal cultures were prepared in RPMI supplemented with 1% glucose (Merck) and diluted to 2–5 × 10^5 CFU/mL. For each condition, 10 µL of the suspension was added to 90 µL of peptide-containing RPMI or RPMI supplemented with 50% (v/v) pooled human plasma (hereafter referred to as 50% plasma; final bacterial concentration 1 × 10^6 CFU/mL, final fungal concentration 2–5 × 10^4 CFU/mL. Human plasma from four healthy volunteers (Sanquin, Netherlands) was pooled, and stored at −20 °C until use. Peptides were tested similarly for fungicidal activity, after 18 h of incubation at 37 °C with shaking (120 rpm) under humidified conditions, bacterial and fungal survival was determined by plating 10 µL aliquots onto BA plates. Assays were performed in duplicate in round-bottom polypropylene microtiter plates (Costar) and repeated independently three times. Untreated controls included bacteria exposed to RPMI alone or RPMI with 50% plasma. Bactericidal and fungicidal activity was expressed as the lethal concentration 99.9% (LC99.9), defined as the lowest peptide concentration causing ≥99.9% reduction in numbers of CFU compared to the initial inoculum.

human erythrocytes = assay: Hemolytic activity; type: cell-based; settings: 45 min
Description: Whole blood was collected from healthy volunteers after obtaining informed consent, using Vacuette EDTA tubes (Greiner Bio-One). […] For hemolytic assessment, 180 μL of the prepared erythrocyte suspension was mixed with 20 μL of serially diluted peptide solutions (ranging from 60 to 0.03 μM in PBS).

[3] = system: Acinetobacter baumannii RUH875; type: cell-based; settings: 18 h, 37 °C, median of three independent experiments (Table 1)
Description: as §1

[4] = system: HaCaT human keratinocytes; assay: Cytotoxicity (WST-1 and LDH); type: cell-based
Description: (§2) Cells (5 × 10^5 cells/mL) were seeded in 96-well plates (100 μL/well; Thermo Scientific) and allowed to adhere for 24 h. After adhesion, monolayers were exposed to two-fold serial dilutions of the tetrameric and reference peptides (final concentrations: 60–0.05 µM) in fresh DMEM containing 2% (v/v) FBS, and incubated for 24 h at 37 °C in a humidified 5% CO2 atmosphere. Cell viability was assessed using the water-soluble tetrazolium salt (WST-1; Roche) assay, and membrane integrity was measured using the lactate dehydrogenase (LDH) release assay (Abcam), following manufacturer instructions. Absorbance was measured using the Synergy H1 microplate reader (Biotek). Results are expressed as percentages relative to untreated control (for WST-1) and positive lysis control (for LDH) and all experiments were performed in triplicate.

[5] = system: human skin fibroblast cells (BJ); assay: Cytotoxicity (WST-1 and LDH); type: cell-based
Description: as §2

[6] = system: TNF-α production by unstimulated dTHP-1 macrophages; assay: TNFα induction by peptides alone in macrophages; type: cell-based, human; settings: 2 µM peptide, 4 h, no endotoxin stimulation, versus unstimulated cells
Description: The endotoxin-neutralizing capacity of the peptides was assessed by measuring tumor necrosis factor-alpha (TNF-α) production by dTHP-1 macrophages. dTHP-1 macrophages were stimulated with either lipopolysaccharide (LPS; E. coli O111:B4; 5 ng/mL, Sigma-Aldrich) or UV-inactivated S. aureus JAR060131 (MOI 2; as described in Section 5.2), in the presence or absence of one or 2 µM peptides. Cells were cultured in serum-free RPMI and incubated for 4 h at 37 °C with 5% CO2. Positive controls consisted of cells stimulated with LPS or UV-S. aureus without peptide treatment (no treatment, NT), and unstimulated cells served as negative controls. After stimulation, cell supernatants were collected, and cytokine levels of TNF-α were quantified using human ELISA kits (R&D Systems, USA) according to the manufacturer’s instructions. Each condition was tested in triplicate.

[7] = system: S. aureus RN4220 (mCherry) in dTHP-1 macrophages; assay: Intracellular bacterial killing in macrophages; type: cell-based, Staphylococcus aureus; settings: 24 h pre-treatment at 1 µM and 2 µM, MOI 2, CFU after lysis, versus no treatment
Description: Human monocytes (THP-1; TIB-202; ATCC) were cultured in RPMI 1,640 medium (Gibco) supplemented with 10% FBS. For differentiation into macrophage-like cells (dTHP-1), THP-1 monocytes were seeded in 96-well plates at 3 × 10^4 cells/well (100 µL) in RPMI supplemented with 50 ng/mL phorbol 12-myristate 13-acetate (PMA; Sigma-Aldrich), and incubated for 48 h. The protocol for intracellular killing was adapted from Tang et al. ([Tang et al., 2015]) with modifications. After differentiation, dTHP-1 cells were pre-treated with one or 2 µM peptide solutions in fresh RPMI for 24 h. Subsequently peptides were removed by washing three times with PBS. An mCherry-expressing S. aureus strain, prepared as described in Section 5.2, was used. This strain is efficiently internalized by macrophages ([Cuypers et al., 2024]). Bacteria were added to dTHP-1 cells at a multiplicity of infection (MOI) of 2:1 and incubated for 45 min at 37 °C with 5% CO2 for phagocytosis. Extracellular bacteria were then removed by washing the wells three times with 60 µL PBS, followed by a final wash with 200 µL PBS.dTHP-1 cells were either lysed immediately to quantify the number of intracellular bacteria, after phagocytosis (T = 0 h) or were incubated for 24 h (T = 24 h) in RPMI supplemented with 10 μg/mL gentamicin (Sigma-Aldrich) to inhibit extracellular bacterial growth (in both peptide-treated and control dTHP-1 cells). Internalized bacteria were quantified after lysing the cells with 0.025% Triton X-100 in PBS for 15 min. Lysates were serially diluted (both at 0 h and 24 h) and plated onto BA for CFU enumeration to assess intracellular bacterial survival.

HaCaT keratinocytes = assay: In vitro scratch wound assay; type: cell-based, human; settings: 1 µM peptide (TGF-β 20 ng/mL); for Percentage of wound closure: 60 h (legend: 64 h)
Description: Cell migration following injury was assessed using an in vitro scratch assay with the IncuCyte wound maker tool (Sartorius). HaCaT keratinocytes were seeded in 96-well ImageLock plates (Sartorius) at 3 × 10^5 cells/well (100 µL) in DMEM supplemented with 10% FBS and incubated at 37 °C, 5% CO2 for 48 h, with medium change at 24 h, until confluence. Uniform scratches were introduced using the wound maker tool according to the manufacturer’s instructions. After wounding, wells were washed twice with 100 µL PBS to remove cell debris. Cells were then treated with 1 µM peptides in serum-free DMEM, to focus specifically on cell migration from the wound edges. The absence of serum minimizes interference with peptide activity. Transforming growth factor-beta (TGF-β; human; 20 ng/mL; Sigma-Aldrich) and 5% dimethyl sulfoxide (DMSO; Sigma-Aldrich) were used as positive and negative controls, respectively. Additional controls included serum-free DMEM (no-treatment control) and 50% (v/v) acetonitrile in Milli-Q water as solvent control. Wound closure was monitored using the IncuCyte S3 live-cell imaging system (Sartorius) with bright-field microscopy. Images were captured every 6 h for up to 60 h. Image analysis was performed using ImageJ software (version 1.53t, NIH, USA) with the “Wound Healing” plugin, as described by Suarez Arnedo et al. ([Suarez-Arnedo et al., 2020]). Quantitative parameters included wound width (µm), percent wound closure, and migration rate (µm/hour).

[8] = 24 h exposure, DMEM 2% FBS, concentration causing >30% membrane permeation, triplicate
[9] = 24 h exposure, WST-1, concentration causing <70% metabolic activity, triplicate

[H]/N=C(\N/C(=N/[H])NCCCCCCNC(=N)NC(=N)Nc1ccc(Cl)cc1)Nc1ccc(Cl)cc1 [Chlorhexidine, reference compound]
Reduction of bacterial burden (CFU counts) [1]: significantly reduced bacterial burden

N=C(N)NCCC[C@H](NC(=O)[C@H](Cc1c[nH]c2ccccc12)NC(=O)[C@H](CCC(N)=O)NC(=O)[C@H](Cc1c[nH]c2ccccc12)NC(=O)[C@H](CCCNC(=N)N)NC(=O)[C@@H](N)CCCNC(=N)N)C(=O)NCC(CNC(=O)[C@H](CCCNC(=N)N)NC(=O)[C@H](Cc1c[nH]c2ccccc12)NC(=O)[C@H](CCC(N)=O)NC(=O)[C@H](Cc1c[nH]c2ccccc12)NC(=O)[C@H](CCCNC(=N)N)NC(=O)[C@@H](N)CCCNC(=N)N)OCC(=O)NCCCCCC(=O)N[C@@H](CSSC[C@H](NC(=O)CCCCCNC(=O)COC(CNC(=O)[C@H](CCCNC(=N)N)NC(=O)[C@H](Cc1c[nH]c2ccccc12)NC(=O)[C@H](CCC(N)=O)NC(=O)[C@H](Cc1c[nH]c2ccccc12)NC(=O)[C@H](CCCNC(=N)N)NC(=O)[C@@H](N)CCCNC(=N)N)CNC(=O)[C@H](CCCNC(=N)N)NC(=O)[C@H](Cc1c[nH]c2ccccc12)NC(=O)[C@H](CCC(N)=O)NC(=O)[C@H](Cc1c[nH]c2ccccc12)NC(=O)[C@H](CCCNC(=N)N)NC(=O)[C@@H](N)CCCNC(=N)N)C(N)=O)C(N)=O (some centres unmarked) [LBT-2]
LC99.9 ([2]; JAR060131, 18 h): 0.47 µM

CC[C@H](C)[C@H](NC(=O)[C@H](CCCCN)NC(=O)[C@H](CCC(=O)O)NC(=O)[C@H](CCCCN)NC(=O)[C@H](CO)NC(=O)[C@H](CCCCN)NC(=O)[C@H](CCCNC(=N)N)NC(=O)[C@H](Cc1ccccc1)NC(=O)[C@H](Cc1ccccc1)NC(=O)[C@H](CC(=O)O)NC(=O)CNC(=O)[C@H](CC(C)C)NC(=O)[C@@H](N)CC(C)C)C(=O)NCC(=O)N[C@@H](CCCCN)C(=O)N[C@@H](CCC(=O)O)C(=O)N[C@@H](Cc1ccccc1)C(=O)N[C@@H](CCCCN)C(=O)N[C@@H](CCCNC(=N)N)C(=O)N[C@H](C(=O)N[C@H](C(=O)N[C@@H](CCC(N)=O)C(=O)N[C@@H](CCCNC(=N)N)C(=O)N[C@H](C(=O)N[C@@H](CCCCN)C(=O)N[C@@H](CC(=O)O)C(=O)N[C@@H](Cc1ccccc1)C(=O)N[C@@H](CC(C)C)C(=O)N[C@@H](CCCNC(=N)N)C(=O)N[C@@H](CC(N)=O)C(=O)N[C@@H](CC(C)C)C(=O)N[C@H](C(=O)N1CCC[C@H]1C(=O)N[C@@H](CCCNC(=N)N)C(=O)N[C@H](C(=O)N[C@@H](CCC(=O)O)C(=O)N[C@@H](CO)C(=O)O)[C@@H](C)O)C(C)C)[C@@H](C)CC)C(C)C)[C@@H](C)CC [LL-37, reference compound]
Hemolysis at the highest concentration tested (human erythrocytes; 60 µM, human erythrocytes): non-hemolytic
Hemolytic concentration (HC) < 30% (human erythrocytes; 1% human erythrocytes in PBS, 37 °C, absorbance 540 nm, 30% lysis threshold, peptides up to 60 µM, triplicate, single donor): >60 µM
LC99.9 ([3]; 50% pooled human plasma): > 120 µM and >120 µM
LC99.9 ([3]; RPMI): >120 µM
LC99.9 ([2]; 50% pooled human plasma in RPMI, 18 h, 37 °C, median of three independent experiments): 60 µM
LC99.9 ([2]; RPMI, 18 h, 37 °C, 1 × 10^6 CFU/mL, median of three independent experiments): 1.88 µM
Cytotoxicity, LDH leakage [4, 8]: 15 µM
Cytotoxicity, Metabolic activity [4, 9]: 15 µM
Cytotoxicity threshold (tolerance), WST-1 and LDH ([4]; keratinocytes, 24 h): 15 µM
Cytotoxicity, LDH leakage [5, 8]: 7.5 µM
Cytotoxicity, Metabolic activity [5, 9]: 15 µM
Cytotoxicity threshold (tolerance), WST-1 and LDH ([5]; fibroblasts, 24 h): 7.5 to 15 µM
TNFα induction by peptide alone [6]: minimal but significant
Macrophage reduction of intracellular S. aureus burden 24 h post-phagocytosis [7]: significantly enhanced
Percentage of wound closure (HaCaT keratinocytes; versus no treatment): significant wound closure

TGF-β
Percentage of wound closure (HaCaT keratinocytes; versus no treatment): near-complete wound closure
Wound width reduction (HaCaT keratinocytes; serum-free DMEM, versus untreated control): highest wound width reduction
Rate of cell migration (HaCaT keratinocytes; versus no treatment): faster wound closure
